Assay results from ChEMBL document CHEMBL4266057, “Optimization of Preclinical Metabolism for Somatostatin Receptor Subtype 5-Selective Antagonists” (ACS Med Chem Lett, 2018).

Tests used:
in vitro [1] = details: human, liver microsomes
in vitro [2] = details: rhesus monkey, liver microsomes
[3] = Drug level in rhesus monkey plasma treated with 4-(8-((2,6-diethoxy-4'-fluorobiphenyl-4-yl)methyl)-3-oxo-2,8-diazaspiro[4.5]decan-2-yl)benzoic acid at 50 mg/kg, po qd for 5 days by HPLC analysis; format: ADME, organism-based, Macaca mulatta; details: in vivo, 120 h
[4] = Drug metabolism in rhesus monkey plasma assessed as oxidation of biphenyl ring at 50 mg/kg, po qd for 5 days by HPLC analysis; format: ADME, organism-based, Macaca mulatta; details: in vivo, 120 h
[5] = Drug metabolism in rhesus monkey plasma assessed as de-ethylation of ethoxyl group at 50 mg/kg, po qd for 5 days by HPLC analysis; format: ADME, organism-based, Macaca mulatta; details: in vivo, 120 h
[6] = Drug metabolism in rhesus monkey plasma assessed as hydroxylation of benzoic acid at 50 mg/kg, po qd for 5 days by HPLC analysis; format: ADME, organism-based, Macaca mulatta; details: in vivo, 120 h
in vivo [7] = details: Sprague-Dawley, rat
[8] = Metabolic stability in rat liver microsomes at 1 uM after 30 mins; format: ADME, microsome; details: read-out: Stability
[9] = Metabolic stability in Beagle dog liver microsomes at 1 uM after 30 mins; format: ADME, Canis lupus familiaris, microsome; details: read-out: Stability
[10] = Fraction unbound in high fat diet fed C57BL/6N mouse plasma at 3 mg/kg, po after 3 hrs; format: ADME, organism-based; details: in vivo
[11] = Drug metabolism in rhesus monkey plasma assessed as glucuronidation of carboxylic acid at 50 mg/kg, po qd for 5 days by HPLC analysis; format: ADME, organism-based, Macaca mulatta; details: in vivo, 120 h
in vivo [12] = details: Sprague-Dawley, rat, iv, 1 mg/kg
in vivo [13] = details: rhesus monkey, po, 5 mg/kg
in vivo [14] = details: Sprague-Dawley, rat, po, 2 mg/kg
in vivo [15] = details: Sprague-Dawley, rat; remark: listed apart in the source
in vivo [16] = details: rhesus monkey, plasma, po, 5 mg/kg
in vivo [17] = details: rhesus monkey, po, 5 mg/kg; remark: listed apart in the source

For `Cc1cc(-c2ccc(F)c(F)c2F)c(CN2CCC3(CC2)CC(=O)N(c2ccc(C(=O)O)cc2)C3)cc1C(F)(F)F`, the remaining at 0.5 h, 1 µM (in vitro [1]) was 100% and the remaining at 0.5 h, 1 µM (in vitro [2]) was 94%.
For `CCOc1cc(CN2CCC3(CC2)CC(=O)N(c2ccc(C(=O)O[C@@H]4O[C@H](C(=O)O)[C@@H](O)[C@H](O)[C@H]4O)cc2)C3)cc(OCC)c1-c1ccc(F)cc1`, the Drug metabolism [3] was “Metabolite_Detected”.
Work on `Cc1cccc2c(CN3CCC4(CC3)CC(=O)N(c3ccc(C(=O)O)cc3)C4)cn(C(C)C)c12` yielded a remaining at 0.5 h, 1 µM (in vitro [1]) of 100% and a remaining at 0.5 h, 1 µM (in vitro [2]) of 95%.
In the case of `CCOc1cc(CN2CCC3(CC2)CC(=O)N(c2ccc(C(=O)O)cc2)C3)cc(OCC)c1-c1ccc(F)cc1`, the Drug metabolism [4] is reported as “Metabolite_Detected”, the Drug metabolism [5] is reported as “Metabolite_Detected” and the Drug metabolism [6] is reported as “Metabolite_Detected”. For the same compound, the AUC (in vivo [7]) was 1.67 µM·h, the remaining at 0.5 h, 1 µM [8] was over 80% and the remaining at 0.5 h, 1 µM [9] was over 80%. For the same compound, the “Cp(f)” value [10] was 16 nM, the Drug metabolism [11] was “Metabolite_Detected” and the remaining at 0.5 h, 1 µM (in vitro [1]) was 92%. For the same compound, the remaining at 0.5 h, 1 µM (in vitro [2]) was 28%.
`O=C(O)c1ccc(N2CC3(CCN(Cc4cc(C(F)(F)F)ccc4C4CC4)CC3)OC2=O)cc1` gave a clearance (in vivo [12]) of 3.4 mL/min/kg, an AUC (in vivo [13]) of 31.2 µM·h and a bioavailability (in vivo [14]) of 85%. For the same compound, the half-life (in vivo [15]) was 1.6 h, the AUC (in vivo [7]) was 8.5 µM·h and the remaining at 0.5 h, 1 µM (in vitro [1]) was 99%. It also gave a concentration at 24 h (in vivo [16]) of 470 nM, a Cmax (in vivo [17]) of 2990 nM and a remaining at 0.5 h, 1 µM (in vitro [2]) of 94%.
